Where only a bound is given, the exact number is not on record here.

For one assay, the target named is T1, Cbl-b (Homo sapiens, UniProt Q13191).
T1 construct: biotin (biotinylated)
In words: Cbl-b probe displacement HTRF binding assay. The conditions noted are these: 0.4 nM biotinylated Cbl-b, 150 nM BODIPY probe. As to the method:
The affinity with which compounds of the present disclosure bind to Cbl-b was assessed using probe displacement homologous time resolved fluorescence (HTRF) assays. The assays used a BODIPY™ conjugated probe (Example 54 from WO 2020264398) and biotinylated Cbl-b. The assays were performed in assay buffer consisting of 20 mM Hepes, 150 mM NaCl, 0.01% Triton X-100, 0.5 mM TCEP, 0.01% BSA. On the day of the assay, a 20 point, 1:2 master serial dilution of each compound was prepared in DMSO to span a final concentration range of 10 μM to 0 nM. Two hundred nanoliters of diluted compound was added to each well of a 384-well plate. Fifteen microliters of biotinylated—Cbl-b resuspended in assay buffer were added to each well and the plate incubated for 60 minutes at room temperature prior to addition of 5 μL of BODIPY™ probe in assay buffer. Final assay conditions included 0.4 nM of Cbl-b and 150 nM of BODIPY™ probe. After a further 15 minutes of incubation at room temperature, 5 μl of Streptavidin-Terbium cryptate reagent at 5-fold final concentration was added to each well of the 384-well plate. Binding of a probe to Cbl-b results in an increase of HTRF signal. HTRF signal was measured by Envision plate reader, while competition of a compound of the present disclosure with probe results in a decrease of signal. Percentage maximum activity in each test well was calculated based on DMSO (maximum activity, 0% displacement) and no protein control wells (baseline activity, 100% displacement). Binding affinity was determined from a dose response curve fitted using a standard four parameter fit equation. See Table 3 for data for compounds (Cbl-b Binding (IC50)).
(In general: TR-FRET usually uses a lanthanide donor and a delayed reading to cut background.)

The next assay deals with Jurkat cells. The experiment in a line: IL-2 secretion assay in CD3/CD28-activated Jurkat cells (AlphaLISA). In kind it is cell-based, human. The conditions noted are these: Homo sapiens, CD3/CD28 T Cell Activator, 24 h, IL-2 AlphaLISA. As to the method:
Certain compounds were also evaluated in an IL-2 secretion assay. On the day of the assay, a 16 point, 1:2 master serial dilution of each compound was prepared in Opti-MEM to span a final concentration range of 10 μM to 300 pM. Assays were setup in CORNING® tissue culture-treated 384-well microplates containing 60 nL of each dilution. Jurkat cells grown in RPMI-1640 supplemented with 10% FBS, 1% Glutamax, and 1% Pen/Strep were collected, resuspended in Opti-MEM. 50,000 cells/well and added to the compound plates. After a short spin (1200 rpm for 1 min), the plates were incubated at 37° C. for 1 hour. The cells were activated by adding 15 μL of IMUNOCULT™ Human CD3/CD28 T Cell Activator (STEMCELL Technologies) diluted in Opti-MEM. After 24 h of incubation at 37° C., aliquots of culture supernatants were transferred to OptiPlate-384 (PerkinElmer) microplates. The level of IL-2 secretion in the supernatants was then determined using the IL-2 (human) AlphaLISA Detection Kit (PerkinElmer) according to the manufacturer's recommendations. The AlphaLISA signal was measured using an EnVision plate reader (PerkinElmer). EC50 values were determined by fitting the data to a standard 4-parameter logistic equation. See Table 3 for data for select compounds (IL-2 Secretion (EC50)).

T1 sequence (Q13191 whole entry, species assumed): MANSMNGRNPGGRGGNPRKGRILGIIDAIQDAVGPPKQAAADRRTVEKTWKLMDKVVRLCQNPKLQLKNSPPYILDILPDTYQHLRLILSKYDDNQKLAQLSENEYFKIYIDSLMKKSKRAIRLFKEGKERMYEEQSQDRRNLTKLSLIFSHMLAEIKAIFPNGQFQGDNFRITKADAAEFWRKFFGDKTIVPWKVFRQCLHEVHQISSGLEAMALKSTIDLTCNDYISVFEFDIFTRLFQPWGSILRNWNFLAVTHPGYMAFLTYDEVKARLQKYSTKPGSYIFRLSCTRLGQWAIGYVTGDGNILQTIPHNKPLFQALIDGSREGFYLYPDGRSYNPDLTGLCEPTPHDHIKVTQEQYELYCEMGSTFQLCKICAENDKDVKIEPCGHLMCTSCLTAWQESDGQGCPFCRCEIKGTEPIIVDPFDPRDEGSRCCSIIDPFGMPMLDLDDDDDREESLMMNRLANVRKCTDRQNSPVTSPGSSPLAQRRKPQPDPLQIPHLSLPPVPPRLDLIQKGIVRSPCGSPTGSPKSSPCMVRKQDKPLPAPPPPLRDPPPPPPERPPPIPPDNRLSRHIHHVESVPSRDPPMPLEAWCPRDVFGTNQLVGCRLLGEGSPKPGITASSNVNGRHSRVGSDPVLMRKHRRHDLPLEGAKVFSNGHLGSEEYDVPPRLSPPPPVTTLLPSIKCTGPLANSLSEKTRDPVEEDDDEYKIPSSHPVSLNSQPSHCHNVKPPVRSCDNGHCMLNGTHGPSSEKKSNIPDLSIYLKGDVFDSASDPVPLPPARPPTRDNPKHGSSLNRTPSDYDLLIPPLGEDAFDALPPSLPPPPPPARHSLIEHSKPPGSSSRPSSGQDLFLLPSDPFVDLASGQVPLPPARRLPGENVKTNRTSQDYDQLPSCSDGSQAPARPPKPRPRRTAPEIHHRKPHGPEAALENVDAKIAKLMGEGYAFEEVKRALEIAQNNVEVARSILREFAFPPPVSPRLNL

As usually defined, the IC50 is the concentration at which inhibition is half-maximal. Higher therefore signals weaker potency in that assay. What is called EC50 is the midpoint of the concentration-response curve. On to `COc1cc(-c2ccc(F)cc2-c2nncn2C)cc(-n2cc(C3CC3)c3cc(CN4CCC[C@H](C)C4)[nH]c3c2=O)n1` [Example 8, 2-{[(S)-3-Methyl-1-piperidyl]methyl}-4-cyclopropyl-6-{4-[4-fluoro-2-(4-methyl-4H-1,2,4-triazol-3-yl)phenyl]-6-methoxy-2-pyridyl}-1,6-dihydro-1,6-diaza-7-indenone], for which the IC50 at Cbl-b is less than 0.1 µM. This molecule came in with an EC50 in the assay with Jurkat cells of less than 0.1 µM.
The molecule `CCOc1cc(-c2ccc(F)cc2-c2nncn2C)cc(-n2cc(C3CC3)c3cc(CN4CCC[C@H](C)C4)[nH]c3c2=O)n1` [Example 9, 2-{[(S)-3-Methyl-1-piperidyl]methyl}-4-cyclopropyl-6-{6-ethoxy-4-[4-fluoro-2-(4-methyl-4H-1,2,4-triazol-3-yl)phenyl]-2-pyridyl}-1,6-dihydro-1,6-diaza-7-indenone] showed an IC50 on Cbl-b of less than 0.1 µM. Besides, the EC50 with Jurkat cells is less than 0.1 µM.
`CCNc1cc(-c2ccc(F)cc2-c2nncn2C)cc(-n2cc(C3CC3)c3cc(CN4CCC[C@H](C)C4)[nH]c3c2=O)n1` [Example 11, 2-{[(S)-3-methyl-1-piperidyl]methyl}-4-cyclopropyl-6-{6-(ethylamino)-4-[4-fluoro-2-(4-methyl-4H-1,2,4-triazol-3-yl)phenyl]-2-pyridyl}-1,6-dihydro-1,6-diaza-7-indenone]: the IC50 on Cbl-b is less than 0.1 µM. In the assay with Jurkat cells, the EC50 was less than 0.1 µM.
For `C[C@H]1CCCN(Cc2cc3c(C4CC4)cn(-c4cc(-c5ccc(F)cc5-c5nncn5C)ccn4)c(=O)c3[nH]2)C1` [Example 12, 2-{[(S)-3-Methyl-1-piperidyl]methyl}-4-cyclopropyl-6-{4-[4-fluoro-2-(4-methyl-4H-1,2,4-triazol-3-yl)phenyl]-2-pyridyl}-1,6-dihydro-1,6-diaza-7-indenone], the IC50 at Cbl-b was less than 0.1 µM. In the assay with Jurkat cells, the EC50 fell in the range of 0.1 to 1 µM.
On the same counts, the results for `[2H]C([2H])([2H])n1ccnc1-c1cc(C#N)ccc1-c1cc(C2CC2)nc(-n2cc(C3CC3)c3cc(CN4CCC[C@H](C)C4)[nH]c3c2=O)c1` [Example 14, 4-[2-(2-{[(S)-3-methyl-1-piperidyl]methyl}-4-cyclopropyl-7-oxo-1,6-dihydro-1,6-diaza-6-indenyl)-6-cyclopropyl-4-pyridyl]-3-{1-[(^2H3)methyl]-2-imidazolyl}benzonitrile] are less than 0.1 µM and less than 0.1 µM.
On the same counts, the results for `C[C@H]1CCCN(Cc2cc3c(C4CC4)cn(-c4cc(-c5ccc(C#N)cc5-c5nccn5C(F)F)cc(C5CC5)n4)c(=O)c3[nH]2)C1` [Example 15, 4-[2-(2-{1[(S)-3-methyl-1-piperidyl]methyl}-4-cyclopropyl-7-oxo-1,6-dihydro-1,6-diaza-6-indenyl)-6-cyclopropyl-4-pyridyl]-3-[1-(difluoromethyl)-2-imidazolyl]benzonitrile] are less than 0.1 µM and less than 0.1 µM.
On the same counts, the results for `C[C@H]1CCCN(Cc2cc3c(C4CC4)cn(-c4cc(-c5ccc(C#N)cc5-c5nccn5C)cc(C(F)(F)F)n4)c(=O)c3[nH]2)C1` [Example 16, 4-[2-(2-{[(S)-3-methyl-1-piperidyl]methyl}-4-cyclopropyl-7-oxo-1,6-dihydro-1,6-diaza-6-indenyl)-6-(trifluoromethyl)-4-pyridyl]-3-(1-methyl-2-imidazolyl)benzonitrile] are less than 0.1 µM and less than 0.1 µM.
On Cbl-b, `C[C@H]1CCCN(Cc2cc3c(C4CC4)cn(-c4cccc(-c5ccc(F)cc5-c5nccn5C)c4)c(=O)c3[nH]2)C1` [Example 17, 4-cyclopropyl-6-[3-[4-fluoro-2-(1-methylimidazol-2-yl)phenyl]phenyl]-2-[[(3S)-3-methylpiperidin-1-yl]methyl]-1H-pyrrolo[2,3-c]pyridin-7-one] came in with an IC50 of less than 0.1 µM. In the assay on Jurkat cells, this molecule displayed an EC50 of 0.1 to 1 µM.
In turn, `Cc1c[nH]nc1-c1cc(C#N)ccc1-c1cc(C2CC2)nc(-n2cc(C3CC3)c3cc(CN4C[C@@H]5C[C@H]4CN5)[nH]c3c2=O)c1` [Example 18, 4-[2-cyclopropyl-6-[4-cyclopropyl-2-[[(1S,4S)-2,5-diazabicyclo[2.2.1]-heptan-2-yl]methyl]-7-oxo-1H-pyrrolo[2,3-c]pyridin-6-yl]pyridin-4-yl]-3-(4-methyl-1H-pyrazol-3-yl)benzonitrile] yielded an IC50 on Cbl-b of less than 0.1 µM. Also, the EC50 in the assay on Jurkat cells was in the range of 1 to 5 µM.
On the same counts, the results for `Cc1c[nH]nc1-c1cc(C#N)ccc1-c1cc(C2CC2)nc(-n2cc(C3CC3)c3cc(CN4CCC[C@H](C)C4)[nH]c3c2=O)c1` [Example 19, 4-[2-cyclopropyl-6-[4-cyclopropyl-2-[[(3S)-3-methylpiperidin-1-yl]methyl]-7-oxo-1H-pyrrolo[2,3-c]pyridin-6-yl]pyridin-4-yl]-3-(4-methyl-1H-pyrazol-3-yl)benzonitrile] are less than 0.1 µM and less than 0.1 µM.
On the same counts, the results for `Cc1c[nH]nc1-c1cc(C#N)ccc1-c1cc(C2CC2)nc(-n2cc(C3CC3)c3cc(CNCC4(O)CCC4)[nH]c3c2=O)c1` [Example 20, 4-[2-cyclopropyl-6-[4-cyclopropyl-2-[[(1-hydroxycyclobutyl)methylamino]-methyl]-7-oxo-1H-pyrrolo[2,3-c]pyridin-6-yl]pyridin-4-yl]-3-(4-methyl-1H-pyrazol-3-yl)benzonitrile] are less than 0.1 µM and 0.1 to 1 µM.
For `Cc1c[nH]nc1-c1cc(F)ccc1-c1cccc(-n2cc(C3CC3)c3cc(CN4CCC[C@H](C)C4)[nH]c3c2=O)c1` [Example 21, 4-cyclopropyl-6-[3-[4-fluoro-2-(4-methyl-1H-pyrazol-3-yl)phenyl]phenyl]-2-[[(3S)-3-methylpiperidin-1-yl]methyl]-1H-pyrrolo[2,3-c]pyridin-7-one], in that order: less than 0.1 µM and 0.1 to 1 µM.
`Cc1c[nH]nc1-c1cc(C#N)ccc1-c1cc(C2CC2)nc(-n2cnc3cc(CN4CCC[C@H](C)C4)[nH]c3c2=O)c1` [Example 22, 4-[2-cyclopropyl-6-[6-[[(3S)-3-methylpiperidin-1-yl]methyl]-4-oxo-5H-pyrrolo[3,2-d]pyrimidin-3-yl]pyridin-4-yl]-3-(4-methyl-1H-pyrazol-3-yl)benzonitrile] displayed an IC50 at Cbl-b of less than 0.1 µM. In the assay with Jurkat cells, this molecule yielded an EC50 of less than 0.1 µM.
At Cbl-b, `C[C@H]1CCCN(Cc2cc3c(C4CC4)cn(-c4cc(-c5ccc(F)cc5-c5cncn5C)cc(Cl)n4)c(=O)c3[nH]2)C1` [Example 23, 2-{[(S)-3-methyl-1-piperidyl]methyl}-6-{6-chloro-4-[4-fluoro-2-(1-methyl-5-imidazolyl)phenyl]-2-pyridyl}-4-cyclopropyl-1,6-dihydro-1,6-diaza-7-indenone] registered an IC50 of 1 to 5 µM. Besides, the EC50 with Jurkat cells is more than 5 µM.
On Cbl-b, `C[C@H]1CCCN(Cc2cc3c(C4CC4)cn(-c4cc(-c5ccc(F)cc5-c5cncn5C)cc(C5CC5)n4)c(=O)c3[nH]2)C1` [Example 24, 2-{[(S)-3-Methyl-1-piperidyl]methyl}-4-cyclopropyl-6-{6-cyclopropyl-4-[4-fluoro-2-(1-methyl-5-imidazolyl)phenyl]-2-pyridyl}-1,6-dihydro-1,6-diaza-7-indenone] displayed an IC50 of 0.1 to 1 µM. In the assay with Jurkat cells, this molecule had an EC50 of 1 to 5 µM.
Consider `C[C@H]1CCCN(Cc2cc3c(C4CC4)cn(-c4cc(-c5c(-c6nncn6C)cnn5C)cc(Cl)n4)c(=O)c3[nH]2)C1` [Example 25, 2-{[(S)-3-Methyl-1-piperidyl]methyl}-6-{6-chloro-4-[1-methyl-4-(4-methyl-4H-1,2,4-triazol-3-yl)-5-pyrazolyl]-2-pyridyl}-4-cyclopropyl-1,6-dihydro-1,6-diaza-7-indenone], for which the IC50 at Cbl-b is less than 0.1 µM. In addition, the EC50 in the assay with Jurkat cells is less than 0.1 µM.
For the molecule `Cn1cnnc1-c1cc(F)ccc1-c1cc(C2CC2)nc(-n2cc(C(F)(F)F)c3c(C#N)n[nH]c3c2=O)c1` [Example 26, 6-{6-cyclopropyl-4-[4-fluoro-2-(4-methyl-4H-1,2,4-triazol-3-yl)phenyl]-2-pyridyl}-7-oxo-4-(trifluoromethyl)-1,6-dihydro-1,2,6-triaza-3-indenecarbonitrile], on Cbl-b, the IC50 is less than 0.1 µM. The EC50 with Jurkat cells is 1 to 5 µM.

The values are drawn from US20250011318A1 (ARCUS BIOSCIENCES, INC., priority 2023, published 2025).
